Data taken from patent US5863937A, “Pharmaceutical compositions” (BTG International Limited, priority 1993, dated 1999).
Values after ≈ are worked out from the molar mass of the structure shown.

Assays:
Assay in all cases: MIC, broth serial dilution in liquid YNB medium
C. albicans ATTC 26278 = format: cell-based, Candida albicans; details: 30° C., 24 hours; for minimum inhibiting concentration (MIC), C. albicans ATTC 26278: YNB-Difco medium, 200 μg/ml sodium glutamate, 10^5 cells/ml; for minimum inhibiting concentration (MIC) against Candida albicans ATCC 26278: liquid YNB medium, monosodium glutamate 200 μg/ml
Experimental: The antifungal activity of the compounds has been determined by the serial dilution method in a liquid YNB (Yeast Nitrogen Base) medium containing monosodium glutamate at a concentration of 200 μg/ml, with a temperature of 30° C. and an incubation time of 24 hours.
(§1) The minimum inhibiting concentrations (MIC) in mg/ml were determined for the compounds of Examples 1, 2, 7, 8, 12 and 13 against various Candida sp. using the broth serial dilution method of Milewski et al., Drugs Exp. Clin. Res., 1988, 14, 461. A liquid Yeast Nitrogen Base (YNB)-Difco medium containing 200 μg/ml sodium glutamate was used with a content of 10^5 cells/ml at a temperature of 30° C. and with an incubation time of 24 hours.

C. albicans 2043 = format: cell-based, Candida albicans; details: YNB-Difco medium, 200 μg/ml sodium glutamate, 10^5 cells/ml, 30° C., 24 hours
Experimental: as §1

C. glabrata = format: cell-based, Candida glabrata; details: YNB-Difco medium, 200 μg/ml sodium glutamate, 10^5 cells/ml, 30° C., 24 hours
Experimental: as §1

C. krusei = format: cell-based, Candida krusei; details: YNB-Difco medium, 200 μg/ml sodium glutamate, 10^5 cells/ml, 30° C., 24 hours
Experimental: as §1

C. famata 1940 = format: cell-based, Candida famata; details: YNB-Difco medium, 200 μg/ml sodium glutamate, 10^5 cells/ml, 30° C., 24 hours
Experimental: as §1

[1] = listed as N^2 -L-norvalyl-N^3-trans-2,3-epoxysuccinamoyl-L-2,3-diaminopropanoic acid in th

Compound | minimum inhibiting concentration (MIC), C. albicans ATTC 26278 (C. albicans ATTC 26278) [µg/mL] | minimum inhibiting concentration (MIC) against Candida albicans ATCC 26278 (C. albicans ATTC 26278) [µg/mL] | minimum inhibiting concentration (MIC), C. albicans 2043 (C. albicans 2043) [µg/mL] | minimum inhibiting concentration (MIC), C. glabrata (C. glabrata) [µg/mL] | minimum inhibiting concentration (MIC), C. krusei (C. krusei) [µg/mL] | minimum inhibiting concentration (MIC), C. famata 1940 (C. famata 1940) [µg/mL] | minimum inhibiting concentration (MIC) against Candida albicans ATCC 26278 (C. albicans ATTC 26278; [1]) [µg/mL]
C[C@H](N)C(=O)N[C@@H](CNC(=O)[C@@H]1O[C@H]1C(N)=O)C(=O)O (racemic) [Ala--DL--EADP, N^2 -L-alanyl-N^3 -DL-trans-2,3-epoxysuccinamoyl-L-2,3-diaminopropanoic acid, reference compound] | 1200 (≈ 4160 µM) | 1.2 (≈ 4.16 µM) | 1000 (≈ 3470 µM) | 1500 (≈ 5200 µM) |  |  | 
CCC[C@H](NC(=O)[C@@H](N)CNC(=O)[C@@H]1O[C@H]1C(N)=O)C(=O)O (racemic) [DL--EADP--Nva, N^3 -DL-trans-2,3-Epoxysuccinamoyl-L-2,3-diaminopropionyl-L-norvaline] | 500 (≈ 1580 µM) |  | 750 (≈ 2370 µM) | 1250 (≈ 3950 µM) | 1000 (≈ 3160 µM) | 750 (≈ 2370 µM) | 
CCC[C@H](NC(=O)[C@@H](N)CCCCN)C(=O)N[C@@H](CNC(=O)[C@@H]1O[C@H]1C(N)=O)C(=O)O (racemic) [Lys--Nva--DL--EADP, N^2 -L-Lysyl-L-norvalyl-N^3 -DL-trans-2,3-epoxysuccinamoyl-L-2,3-diaminopropanoic acid] | 500 (≈ 1120 µM) |  | 500 (≈ 1120 µM) | 750 (≈ 1690 µM) | 1500 (≈ 3370 µM) | 1000 (≈ 2250 µM) | 
CCC[C@H](N)C(=O)N[C@@H](CNC(=O)[C@@H]1O[C@H]1C(N)=O)C(=O)O (racemic) [Nva--DL--EADP, N^2 -L-Norvalyl-N^3 -DL-trans-2,3-epoxysuccinamoyl-L-2,3-diaminopropanoic acid] | 250 (≈ 790 µM) |  | 250 (≈ 790 µM) | 750 (≈ 2370 µM) | 350 (≈ 1110 µM) | 500 (≈ 1580 µM) | 0.25 (≈ 0.79 µM)
CCC[C@H](NC(=O)[C@@H](N)CNC(=O)[C@@H]1O[C@H]1C(N)=O)C(=O)O (relative stereo) [EADP--Nva, N^3 -D-trans-2,3-Epoxysuccinamoyl-L-2,3-diaminopropionyl-L-norvaline] | 400 (≈ 1260 µM) |  | 500 (≈ 1580 µM) | 1000 (≈ 3160 µM) | 800 (≈ 2530 µM) | 500 (≈ 1580 µM) | 
CCC[C@H](NC(=O)[C@@H](N)CCCCN)C(=O)N[C@@H](CNC(=O)[C@@H]1O[C@H]1C(N)=O)C(=O)O (relative stereo) [Lys--Nva--EADP, N^2 -L-Lysyl-L-norvalyl-N^3 -D-trans-2,3-epoxysuccinamoyl-L-2,3-diaminopropanoic acid] | 200 (≈ 450 µM) |  | 250 (≈ 562 µM) | 500 (≈ 1120 µM) | 750 (≈ 1690 µM) | 500 (≈ 1120 µM) | 
CCC[C@H](N)C(=O)N[C@@H](CNC(=O)[C@@H]1O[C@H]1C(N)=O)C(=O)O (relative stereo) [Nva--EADP, N^2 -L-Norvalyl-N^3 -D-trans-2,3-epoxysuccinamoyl-L-2,3-diaminopropanoic acid] | 150 (≈ 474 µM) |  | 100 (≈ 316 µM) | 500 (≈ 1580 µM) | 350 (≈ 1110 µM) | 350 (≈ 1110 µM) | 0.15 (≈ 0.474 µM)
